Assay results published in US9956232B2, “Dialkyl-phosphinoyl-alkane (Dapa) compounds and compositions for treatment of lower gastrointestinal tract disorders” (priority 2016, dated 2018).
Values joined by “and” are separate entries in the source; they are usually repeats but may differ in a detail not shown here. Equal values may be shown once.

Experiments:
isolated mouse vagus = experiment: Capsaicin-induced depolarization of the isolated vagus nerve; conditions: data also shown in U.S. Ser. No. 14/544,042
From the text: An isolated vagus nerve model was developed at Imperial College, London, U.K. [Birrell et al. TrpA1 agonists evoke coughing in guinea pig and human volunteers. Amer. J. respiratory and critical care medicine 180, 1042-7, 2009; Patel, H. J. et al. Inhibition of guinea-pig and human sensory nerve activity and the cough reflex in guinea-pigs by cannabinoid (CB2) receptor activation. Brit. J. Pharmacol. 140, 261-8, 2003]. In this in vitro assay, segments of the mouse vagus nerve are placed on a platform and the electrical activity is recorded after topical application of capsaicin. Capsaicin is a known irritant that elicits pain when it is applied to the skin and it will depolarize the isolated vagus. […] The similar effect of DAPA-2-5 in this test system was published in U.S. Ser. No. 14/55,042. Briefly, segments of vagus nerve, caudal to the nodose ganglion, were removed from mice with fine forceps and segments placed in oxygenated Krebs solution and bubbled with 95% O2/5% CO2. The desheathed nerve trunk was mounted in a ‘grease-gap’ recording chamber and constantly superfused with Krebs solution with a flow rate of approximately 2 mL/min, and the electrical activity of the nerve monitored with electrodes. The temperature of the perfusate was kept constant at 37° C. by a water bath. Nerve depolarizations were induced by superfusion of the nerve with capsaicin (1 μM). After two reproducible depolarization responses to capsaicin, DIPA-1-7 was applied at 1 mg/mL for 10 minutes in the perfusate followed by capsaicin.

[1] = Tablet characterisation (hardness, friability, disintegration, HPLC recovery); type: physicochemical; conditions: prototype tablets disintegrated in water
Method: Dilution Approach: DAPA-2-5 liquid were loaded onto excipients (batch size: 12-24 g) in ˜12 experiments. The API and the selected excipients were mixed geometrically using a stainless steel spatula, and the mixture passed through sieve #20. The sieved blend was lubricated using magnesium stearate (previously sieved through mesh #40), and evaluated for appearance and flow property (through funnel). Based on the flow nature, selected blends were compressed in to tablets using Ø7.2 mm (for 120 mg tablets) or Ø9.5 mm (for higher than 120 mg tablet) standard concave round tooling on an Acura rotary press. Tablets were evaluated for thickness, hardness, friability, and disintegration test in 10 mL of purified water at room temperature. The appearance of powder blends and tablets were photographed.
The formed tablet was evaluated by several parameters. The dissolution rate is the time for the tablet to dissolve in a fixed volume of water [e.g. 10 mL] and, in the case of the ODT, the disintegration time should be less than 30 sec. Tablet hardness measures the structural integrity of a tablet “under conditions of storage, transportation, and handling before usage”. […]
A high pressure liquid chromatography [HPLC] method was developed for analysis of DAPA-2-5 in aqueous solution. […] Prototype tablets containing DAPA-2-5 were disintegrated and the content of DAPA-2-5 measured. […]

Strains TA 98 and TA100 = experiment: Ames test; type: cell-based; conditions: TA 98 and TA100, with and without liver activation
Method: Preliminary toxicological studies were conducted on DAPA-2-5 and DAPA-2-7.

[2] = system: pentobarbital-anesthetized male rats; experiment: Shaking frequency (wet-dog shaking) of anesthetized rats after intravenous, perioral or topical delivery; type: in vivo; conditions: anesthetized rat
Method: In experiments conducted here, test compounds were evaluated for “wet-dog shaking” as a model of cooling sensation. Using a standardized procedure, test compounds were compared in their ability to stimulate the shaking response by intravenous injection into a cannulated femoral vein, by perioral administration, and by topical delivery to the abdominal skin.
Each rat was given two injections with a 30 min interval. […] Shaking frequency was counted for 15 min after injection. Shaking was observed immediately after i.v. injection and at least 78% of the total shakes occurred in the first 5 min after injection. The response in the second trial was at least as robust in the first trial, showing the lack of desensitization.
Test compounds were dissolved in saline and administered by oral gavage to pentobarbital-anesthetized male albino rats at 20 mg/kg at a volume of 0.1 mL/100 g body weight [N=3 to 4 rats per compound]. Shaking was counted over a 40 min period and recorded at 10-min intervals.
For topical application of DAPA, the abdominal skin of the anesthetized rat was shaved and 20 μL of the pure DAPA was applied with a micropipette onto a ˜1 cm diameter circle of skin, enclosed with a ring of cream [Baby cream “Nevskaya kosmetika Detskyi” Nevskaya Kosmetika Inc., Saint-Petersburg 192029], as shown in FIG. 5D. The number of shakes was counted for 1 hr after application.

[3] = Repeated-dose toxicity in male rats (organ weights, histology); type: in vivo, rat

## CCCCCP(=O)(C(C)CC)C(C)CC (stereo not drawn) [DAPA-2-5, 1-Di(sec-butyl) phosphinoyl-pentane]
Isolated mouse vagus; TRPM8 knock-out mouse
  inhibition of capsaicin-induced depolarization: did not inhibit
Isolated mouse vagus; isolated normal mouse vagus
  percent inhibition of capsaicin-induced depolarization: 60%
[1]
  DAPA-2-5 recovered from the aqueous phase: 86±2%
Strains TA 98 and TA100
  mutagenicity in the Ames test: Neither of these compounds was mutagenic
[2]; 2 mg/kg i.v., 2nd trial, counted for 15 min
  Shaking frequency, Intravenous: 20 ± 2 shakes
[2]; 20 mg/kg by oral gavage, counted for 40 min
  Shaking frequency, Perioral: 4 shakes and 4 ± 1 shakes
[2]; 20 μL pure compound on shaved abdominal skin, counted for 1 hr
  Shaking frequency, Topical: 0 shakes
[3]; 20 mg/kg perioral by gavage for 7 days, rats
  organ weights and histology vs vehicle: no statistical difference in organ weights or in histology
[3]; via drinking water, 41 mg/kg body weight/day for 40 days, male rats
  organ weights and histology vs vehicle: no statistical difference in organ weights or in histology
